{"source": "patent EP3952993B1", "about": "“METHOD OF TREATING FUMARIC ACID ESTER-RESISTANT PLAQUE PSORIASIS” (Almirall S.A., priority 2019, dated 2020)", "origin": "cited, not measured here", "system": "patients diagnosed with moderate-to-severe psoriasis", "settings": "up to 720 mg/daily; 16 weeks; vs Fumaderm and placebo", "note": "Structures can show the parent of a compound that is named as a salt.", "data": [{"molecule": "COC(=O)/C=C/C(=O)OC", "note": "[DMF, dimethyl fumarate]", "values": [{"measurement": "co-primary endpoints: PASI 75 and clear/almost clear in the PGA", "value": "significantly superior to placebo and non-inferior to FAEs"}]}]}
